Experimental data published in PMC7052193, “Nanobody-enabled monitoring of kappa opioid receptor states” (Nature Communications, 2020).
Where “and” joins values, the source holds several entries; their conditions need not be identical. Equal values may be shown once. Read-outs that look alike come from different tables or passages of the source.

Assays:
5-HT2AR [1] = type: cell-based, human; settings: 5-HT2AR-KOR, Log [5-HT]
5-HT4R = type: cell-based, human; settings: Gαs, 5-HT4R wt
5-HT2AR [2] = type: cell-based, human; settings: 5-HT2AR-KOR, Log [Drug]
HRH2 [3] = target: HRH2 (Homo sapiens, UniProt P25021); settings: Log [Histamine]
HRH2 [4] = settings: Log [Histamine]
HRH2 [5] = settings: Gαs, HRH2 wt
human wild-type KOR = human wild-type KOR (Homo sapiens, UniProt P41145); assay: [3H]-JDTic association and dissociation assays; type: binding
Experimental: Radioligand dissociation and association assays were performed in parallel using the same concentrations of radioligand, membrane preparations and binding buffer (50 mM Tris, 10 mM MgCl2, 0.1 mM EDTA, 0.1% BSA, pH 7.4).
Time points spanned 1 min to 6 h, depending on experimental conditions and radioligand. The association (Kon) and dissociation (Koff) values were calculated using the Prism model:
Association kinetics to obtain kon5 Y=Ymax*(1−e^−kob*X).
Dissociation—one phase exponential decay to obtain koff6 Y=YO−NS*e^−K*X,

KOR [6] = target: T1, KOR (Homo sapiens, UniProt P41145); assay: cAMP inhibition assay (GloSensor); type: cell-based
kappa receptor = target: kappa receptor; design: method as in Thomas JB et al., 2001; settings: previously reported; ref Thomas JB et al., 2001; read-out: Ki, kappa receptor binding assay; cited from earlier work
KOR [7] = target: T1, KOR; assay: BRET assay, KOR-Rluc and Nb6-mVenus: Nb6 binding / agonist-induced dissociation; type: cell-based
human KOR [8] = target: human KOR (Homo sapiens, UniProt P41145, D266A); assay: as above; type: cell-based
human KOR [9] = target: T2, human KOR (Homo sapiens, UniProt P41145, D266L); assay: as above; type: cell-based
T2 construct: expressed in transfected cells; host or cells: HEK 293T

human KOR [10] = target: human KOR (Homo sapiens, UniProt P41145, L253A); assay: as above; type: cell-based
human KOR [11] = target: T3, human KOR (Homo sapiens, UniProt P41145, R257A); assay: as above; type: cell-based
T3 construct: expressed in transfected cells; host or cells: HEK 293T

human KOR [12] = target: T4, human KOR (Homo sapiens, UniProt P41145, R263A); assay: as above; type: cell-based
T4 construct: expressed in transfected cells; host or cells: HEK 293T

human KOR [13] = target: human KOR (Homo sapiens, UniProt P41145, R270A); assay: as above; type: cell-based
human KOR [14] = target: T5, human KOR (Homo sapiens, UniProt P41145, R270M); assay: as above; type: cell-based
T5 construct: expressed in transfected cells; host or cells: HEK 293T

human KOR [15] = target: T6, human KOR (Homo sapiens, UniProt P41145, R271A); assay: as above; type: cell-based
T6 construct: expressed in transfected cells; host or cells: HEK 293T

human KOR [16] = target: human KOR (Homo sapiens, UniProt P41145, R274A); assay: as above; type: cell-based
5-HT2AR [17] = target: T7, 5-HT2AR (Homo sapiens, UniProt P28223); type: cell-based; settings: wild-type 5-HT2AR
T7 construct: expressed in transfected cells; host or cells: HEK 293T

ETA = target: T8, ETA (Homo sapiens, UniProt P25101); type: cell-based; settings: wild-type ETA
T8 construct: expressed in transfected cells; host or cells: HEK 293T
T8 sequence (P25101 21-427): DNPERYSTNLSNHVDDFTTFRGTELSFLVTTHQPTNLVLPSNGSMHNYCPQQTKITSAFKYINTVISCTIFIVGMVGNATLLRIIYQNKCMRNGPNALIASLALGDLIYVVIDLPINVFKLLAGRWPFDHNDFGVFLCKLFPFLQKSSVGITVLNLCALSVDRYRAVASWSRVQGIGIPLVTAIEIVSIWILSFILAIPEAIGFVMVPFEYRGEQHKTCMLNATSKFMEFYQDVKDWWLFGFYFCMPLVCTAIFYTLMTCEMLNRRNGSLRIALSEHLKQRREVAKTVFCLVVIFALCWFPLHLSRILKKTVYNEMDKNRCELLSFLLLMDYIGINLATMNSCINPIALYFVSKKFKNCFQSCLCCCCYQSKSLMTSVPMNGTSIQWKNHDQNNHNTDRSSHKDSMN

GPR111 = assay: BRET assay GPR111 / GPR111-KOR and Nb6, basal state; type: cell-based
GPR149 = type: cell-based; settings: GPR149-KOR and Nb6
GPR151 [18] = target: T9, GPR151 (Homo sapiens, UniProt Q8TDV0); type: cell-based; settings: GPR151 and Nb6
T9 construct: expressed in transfected cells; host or cells: HEK 293T
T9 sequence (Q8TDV0 1-419): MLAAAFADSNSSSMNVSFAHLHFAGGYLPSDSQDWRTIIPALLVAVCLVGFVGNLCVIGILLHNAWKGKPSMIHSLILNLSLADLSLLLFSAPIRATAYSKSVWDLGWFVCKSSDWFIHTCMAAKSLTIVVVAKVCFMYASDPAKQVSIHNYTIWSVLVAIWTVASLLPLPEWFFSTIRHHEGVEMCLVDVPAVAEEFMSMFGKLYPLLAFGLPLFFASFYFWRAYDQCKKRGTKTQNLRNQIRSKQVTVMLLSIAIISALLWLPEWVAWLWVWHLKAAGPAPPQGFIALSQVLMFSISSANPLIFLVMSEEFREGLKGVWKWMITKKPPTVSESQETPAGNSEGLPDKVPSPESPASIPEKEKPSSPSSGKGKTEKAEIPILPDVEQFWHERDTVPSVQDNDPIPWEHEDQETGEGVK

GPR151 [19] = type: cell-based; settings: GPR151-KOR and Nb6
[20] = target: T10, human KOR containing C-terminal Renilla luciferase (RLuc8) (human, UniProt P41145); assay: FRET or BRET; kinetic BRET in HEK 293T cells co-expressing KOR-Rluc and Nb6-mVenus or Nb39-mVenus; 10 µM Sal A, then 10 µM JDTic added at the indicated times; t1/2 from one phase exponential decay; settings: partners not purified
T10 construct: kappa opioid receptor, human, wild type; also called KOR-Rluc; kappa opioid receptor; source: HEK 293T, co-transfected, in live cells; not shown: RLuc8, C-terminal, kept

[21] = read-out: EC50, G protein activation

T4 sequence (P41145 whole entry R263A): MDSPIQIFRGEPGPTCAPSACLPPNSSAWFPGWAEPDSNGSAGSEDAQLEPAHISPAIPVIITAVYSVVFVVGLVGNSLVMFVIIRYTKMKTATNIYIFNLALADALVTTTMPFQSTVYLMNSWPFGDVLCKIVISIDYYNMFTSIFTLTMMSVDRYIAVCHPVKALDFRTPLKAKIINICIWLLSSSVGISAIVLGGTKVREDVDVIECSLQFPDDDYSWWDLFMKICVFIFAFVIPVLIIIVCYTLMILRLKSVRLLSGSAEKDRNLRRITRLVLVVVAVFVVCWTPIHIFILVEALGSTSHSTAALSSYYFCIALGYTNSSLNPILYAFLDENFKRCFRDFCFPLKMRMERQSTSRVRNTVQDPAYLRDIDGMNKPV
T5 sequence (P41145 whole entry R270M): as the sequence (P41145 whole entry R263A) above, with A263R, R270M counted along it
HRH2 (Homo sapiens, UniProt P25021), sequence (P25021 whole entry): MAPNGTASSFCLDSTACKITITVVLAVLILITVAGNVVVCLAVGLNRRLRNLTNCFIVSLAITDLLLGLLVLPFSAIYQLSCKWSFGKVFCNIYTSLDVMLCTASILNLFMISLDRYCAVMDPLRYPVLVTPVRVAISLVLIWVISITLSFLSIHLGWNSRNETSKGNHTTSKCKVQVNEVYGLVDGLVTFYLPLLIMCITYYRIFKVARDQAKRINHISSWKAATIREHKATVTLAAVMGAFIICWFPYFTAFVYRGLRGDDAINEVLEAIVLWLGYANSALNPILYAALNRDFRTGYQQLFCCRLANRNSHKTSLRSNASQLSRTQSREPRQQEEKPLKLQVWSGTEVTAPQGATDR
human wild-type KOR, sequence (P41145 whole entry): as the sequence (P41145 whole entry R263A) above, with A263R counted along it
T1 sequence (P41145 whole entry): as the sequence (P41145 whole entry R263A) above, with A263R counted along it
T3 sequence (P41145 whole entry R257A): as the sequence (P41145 whole entry R263A) above, with R257A, A263R counted along it
T6 sequence (P41145 whole entry R271A): as the sequence (P41145 whole entry R263A) above, with A263R, R271A counted along it
T2 sequence (P41145 whole entry D266L): as the sequence (P41145 whole entry R263A) above, with A263R, D266L counted along it
T10 sequence (P41145 whole entry): as the sequence (P41145 whole entry R263A) above, with A263R counted along it
T7 sequence (P28223 whole entry): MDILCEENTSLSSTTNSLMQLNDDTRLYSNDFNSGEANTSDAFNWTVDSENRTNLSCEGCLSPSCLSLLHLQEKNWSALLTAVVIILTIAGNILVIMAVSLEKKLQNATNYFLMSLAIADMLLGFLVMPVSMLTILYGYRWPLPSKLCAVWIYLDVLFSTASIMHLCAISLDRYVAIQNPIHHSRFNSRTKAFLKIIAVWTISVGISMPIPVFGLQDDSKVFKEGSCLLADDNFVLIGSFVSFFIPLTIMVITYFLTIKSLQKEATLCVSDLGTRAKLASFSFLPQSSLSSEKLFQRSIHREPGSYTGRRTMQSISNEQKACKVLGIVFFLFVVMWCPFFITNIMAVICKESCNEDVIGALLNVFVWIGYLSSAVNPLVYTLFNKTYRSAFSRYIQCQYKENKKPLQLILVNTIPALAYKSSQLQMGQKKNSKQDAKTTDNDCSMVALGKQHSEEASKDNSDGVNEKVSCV

Molecule: NCCc1c[nH]c2ccc(O)cc12 [5-HT]
- Net BRET receptor and Nb6, source data Figure 5b (5-HT2AR [1]; M = -4): 4.555 and 4.236 and 2.584
- Net BRET receptor and Nb6, source data Figure 5b (5-HT2AR [1]; M = -6): 27.0627 and 18.3518 and 18.7135
- Net BRET receptor and Nb6, source data Figure 5b (5-HT2AR [1]; M = -7): 54.7274 and 50.7842 and 46.0256
- Net BRET receptor and Nb6, source data Figure 5b (5-HT2AR [1]; M = -8): 79.692 and 81.7337 and 74.4168
- Net BRET receptor and Nb6, source data Figure 5b (5-HT2AR [1]; M = -9): 96.2676 and 98.9652 and 90.7989
- Net BRET receptor and Nb6, source data Figure 5b (5-HT2AR [1]; M = -10): 102.206 and 99.7037 and 92.1127
- Net BRET receptor and Nb6, source data Figure 5b (5-HT2AR [1]; M = -11): 99.4094 and 102.177 and 98.4133
- pEC50 ± SEM, G protein activation (5-HT4R): 8.55 ± 0.13
- EC50 (5-HT4R; [21]): 2.85 nM
- Net BRET G protein activation, source data Figure 5c (5-HT2AR [2]; M = -5): 4.77 and 5.378 and 5.642
- Net BRET G protein activation, source data Figure 5c (5-HT2AR [2]; M = -7): 5.149 and 9.509 and 8.117
- Net BRET G protein activation, source data Figure 5c (5-HT2AR [2]; M = -8): 64.908 and 45.488 and 55.524
- Net BRET G protein activation, source data Figure 5c (5-HT2AR [2]; M = -9): 89.3557 and 61.3025 and 75.4781
- Net BRET G protein activation, source data Figure 5c (5-HT2AR [2]; M = -10): 101.409 and 99.4572 and 101.001
- Net BRET G protein activation, source data Figure 5c (5-HT2AR [2]; M = -11): 93.2037 and 102.876 and 98.9921
- Net BRET G protein activation, source data Figure 5c (5-HT2AR [2]; M = -12): 99.8736 and 92.5765 and 96.7631

Molecule: NCCc1c[nH]cn1 [Histamine]
- HRH2 wt (Figure S10) (HRH2 [3]; M -4): 0.035 and 0.037 and 0.032
- HRH2 wt (Figure S10) (HRH2 [3]; M -5): 0.04 and 0.037 and 0.043
- HRH2 wt (Figure S10) (HRH2 [3]; M -6): 0.037 and 0.041 and 0.043
- HRH2 wt (Figure S10) (HRH2 [3]; M -7): 0.041 and 0.036 and 0.042
- HRH2 wt (Figure S10) (HRH2 [3]; M -8): 0.038 and 0.039
- HRH2 wt (Figure S10) (HRH2 [3]; M -9): 0.037 and 0.039 and 0.042
- HRH2 wt (Figure S10) (HRH2 [3]; M -10): 0.036 and 0.04 and 0.031
- HRH2 wt (Figure S10) (HRH2 [3]; M -11): 0.029 and 0.038 and 0.037
- HRH2-KOR (Figure S10) (HRH2 [4]; M -4): 5.219 and 6.229 and 8.754
- HRH2-KOR (Figure S10) (HRH2 [4]; M -8): 49.1583 and 70.3704
- HRH2-KOR (Figure S10) (HRH2 [4]; M -9): 71.8855 and 67.8451 and 91.0774
- HRH2-KOR (Figure S10) (HRH2 [4]; M -10): 90.0673 and 96.633 and 108.754
- HRH2-KOR (Figure S10) (HRH2 [4]; M -11): 95.6229 and 98.6532 and 105.724
- pEC50 ± SEM, G protein activation (HRH2 [5]): 7.64 ± 0.10
- EC50 (HRH2 [5]; [21]): 23.2 nM

Molecule: CC(C)[C@@H](CN1CC[C@@](C)(c2cccc(O)c2)[C@@H](C)C1)NC(=O)[C@H]1Cc2ccc(O)cc2CN1 [JDTic, (3R)-7-hydroxy-N-((1S)-1-[[(3R,4R)-4-(3-hydroxyphenyl)-3,4-dimethyl-1-piperidinyl]methyl]-2-methylpropyl)-1,2,3,4-tetrahydro-3-isoquinolinecarboxamide]
- change of binding affinity (Ki) or equilibrium constant (Kd) with KOR in the presence of Nb6 or Nb39 (human wild-type KOR): no significant changes
- t1/2 increase, KOR preincubated with Nb6 compared to untreated KOR (human wild-type KOR): ~ 2 fold
- BMAX ± SEM (human wild-type KOR; KOR + Nb6): 468 ± 54 CPM
- BMAX ± SEM (human wild-type KOR; KOR + Nb39): 423 ± 59 CPM
- BMAX ± SEM (human wild-type KOR; KOR wt): 412 ± 46 CPM
- activity at KOR, Gi-mediated inhibition of cAMP production (KOR [6]): potent inverse agonist
- Ki (kappa receptor): 0.3 nM

B1: Nb6-mVenus (VHH)
VHH: QVQLQESGGGLVQAGESLRLSCAASGTIFRLYDMGWYRRVSGNQRELVASITSGGSTKYGDSVKGRFTISRDNAKNTVYLQMSSLKPEDTAVYYCNAEYRTGIWEELLDGWGQGTQVTVSS
notes: as the chain of m2, nanobody chain of PDB 6VI4; source: HEK 293T, co-transfected, in live cells; not shown: mVenus, C-terminal, kept
- Net BRET, KOR mutations with Nb6, source data Figure 3b (KOR [7]): 1.21 and 1.208 and 1.235 and 1.249 and 1.256 and 1.272
- Net BRET, KOR mutations with Nb6, source data Figure 3b (human KOR [8]): 0.1429 and 0.1064 and 0.08886 and 0.09293
- Net BRET, KOR mutations with Nb6, source data Figure 3b (human KOR [9]): 0.05761 and 0.05183 and 0.0517 and 0.0557 and 0.08302 and 0.08918
- Net BRET, KOR mutations with Nb6, source data Figure 3b (human KOR [10]): 1.189 and 1.193 and 1.2037 and 1.27 and 1.206 and 1.301
- Net BRET, KOR mutations with Nb6, source data Figure 3b (human KOR [11]): 1.007 and 0.9978 and 1.013 and 1.028 and 1.043 and 1.085
- Net BRET, KOR mutations with Nb6, source data Figure 3b (human KOR [12]): 0.9862 and 0.9845 and 1.038 and 1.045 and 1.021 and 1.043
- Net BRET, KOR mutations with Nb6, source data Figure 3b (human KOR [13]): 0.07102 and 0.06841 and 0.07532 and 0.07378 and 0.08027 and 0.09204
- Net BRET, KOR mutations with Nb6, source data Figure 3b (human KOR [14]): 0.05686 and 0.05346 and 0.04737 and 0.04878 and 0.05049 and 0.05323
- Net BRET, KOR mutations with Nb6, source data Figure 3b (human KOR [15]): 1.2246 and 1.2 and 1.237 and 1.199 and 1.227 and 1.2457
- Net BRET, KOR mutations with Nb6, source data Figure 3b (human KOR [16]): 1.098 and 1.114 and 1.1115 and 1.116 and 1.123 and 1.128
- interaction with Nb6 in the BRET assay (5-HT2AR [17]): did not display measurable interaction
- interaction with Nb6 in the BRET assay (ETA): did not display measurable interaction
- BRET receptor and Nb6 in basal state, source data Figure 5e (GPR111): 96.3553 and 106.675 and 85.5388 and 88.3471
- BRET receptor and Nb6 in basal state, source data Figure 5e (GPR149): 100.397 and 94.0625 and 97.7156 and 109.725
- BRET receptor and Nb6 in basal state, source data Figure 5e (GPR151 [18]): 4.933 and 5.929 and 5.0734 and 5.659
- BRET receptor and Nb6 in basal state, source data Figure 5e (GPR151 [19]): 96.9506 and 102.894 and 103.581 and 99.837
- t1/2 of the decrease in Nb6-KOR BRET after the agonist Sal A [20]: 0.833 ± 0.167 min
- t1/2 of the increase of the BRET ratio after JDTic (following Sal A) [20]: 1.25 ± 0.2 min
